The results in this text go back to patent publication US20050032873A1, “3-Amino chroman and 2-amino tetralin derivatives” (Wyeth, priority 2003, published 2005).

Test [1] deals with T1, 5-HT1A receptor (Homo sapiens, UniProt P08908).
T1 sequence (P08908 1-422): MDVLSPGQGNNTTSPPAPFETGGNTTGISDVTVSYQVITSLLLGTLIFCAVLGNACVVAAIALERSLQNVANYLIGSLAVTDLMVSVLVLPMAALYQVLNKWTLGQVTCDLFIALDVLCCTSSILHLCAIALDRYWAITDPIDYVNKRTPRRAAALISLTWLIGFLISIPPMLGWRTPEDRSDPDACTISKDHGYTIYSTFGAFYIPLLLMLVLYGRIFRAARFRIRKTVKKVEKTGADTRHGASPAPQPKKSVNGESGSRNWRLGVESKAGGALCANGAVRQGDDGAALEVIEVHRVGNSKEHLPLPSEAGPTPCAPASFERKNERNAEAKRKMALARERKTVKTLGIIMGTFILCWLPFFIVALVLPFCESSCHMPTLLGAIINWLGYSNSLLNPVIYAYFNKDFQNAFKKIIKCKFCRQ
Description: 5-HT1A receptor affinity: displacement of [3H] 8-OH-DPAT. Conditions: displacement of [3H] 8-OH-DPAT; CHO cells stably transfected with human 5-HT1A receptors; read-out: 5-HT1A Receptor Affinity Ki. The format is binding. Further details: expressed in transfected cells. In general terms: Loss of bound radioactivity is the signal in a displacement assay; it reports binding, not function.

In the next test the target is T2, serotonin transporter (Rattus norvegicus, UniProt P31652).
T2 construct: displace ^3H-paroxetine from male rat cortical membranes; from tissue; host or cells: male rat cortical membranes
Description: 5-HT transporter affinity: displacement of 3H-paroxetine from male rat cortical membranes. The class given is binding. The following applies: displacement of 3H-paroxetine; male rat cortical membranes; read-out: 5-HT Transporter Affinity Ki.

In test [2] the target is T1, 5-HT1A receptor. The experiment in a line: cAMP accumulation assay, 5-HT1A function. The format is cell-based. Conditions: for Emax / 5-HT1A Function cAMP (Emax): in brackets after EC50 or IC50; for Emax: read-out: 5-HT1A Function cAMP (Emax); for IC50: cells marked IC50 (antagonist), read-out: 5-HT1A Function cAMP IC50; for EC50: cells marked EC50 (agonist). For orientation: Cyclic AMP is a second messenger, typically raised through Gs and lowered through Gi signalling.
Description: The agonist or antagonist activity at 5-HT1A receptors was established by using two different assays. […] Agonists produce an increase in binding whereas antagonists produce no increase but rather reverse the effects of the standard agonist 8-OH-DPAT. The test compound's maximum stimulatory effect is represented as the Emax, while its potency is defined by the EC50. The test compound's maximum inhibitory effect is represented as the Imax, while its potency is defined by the IC50. The second assay measured cAMP accumulation upon binding of the ligand to the 5-HT1A receptor. […] The test compound's maximum stimulatory or inhibitory effect is represented as the Emax while its potency is defined by either IC50 for an antagonist or EC50 for an agonist. [^3H]-8-OH-DPAT was used to determine maximum agonist or antagonist response in both functional assays.

Test [3] concerns the target T3, cloned human 5-HT1A receptors (Homo sapiens, UniProt P08908).
T3 construct: expressed in transfected cells
T3 sequence (P08908 1-422): T1 sequence (P08908 1-422)
Description: 35S-GTPγS binding assay, 5-HT1A function. The format is biochemical. Conditions: for EC50: agonist potency; for IC50: antagonist potency, reversal of 8-OH-DPAT, read-out: 5-HT1A Function GTPγS IC50.

Where [4] appears, read: maximum stimulatory effect, in brackets after EC50, read-out: 5-HT1A Function GTPγS (Emax).
[5] abbreviates: maximum inhibitory effect, in brackets after IC50.
Where [6] appears, read: maximum inhibitory effect, in brackets after IC50, read-out: 5-HT1A Function GTPγS (Imax).

Like-named read-outs stand apart in the source and are kept apart here.

T2 sequence (P31652 whole entry): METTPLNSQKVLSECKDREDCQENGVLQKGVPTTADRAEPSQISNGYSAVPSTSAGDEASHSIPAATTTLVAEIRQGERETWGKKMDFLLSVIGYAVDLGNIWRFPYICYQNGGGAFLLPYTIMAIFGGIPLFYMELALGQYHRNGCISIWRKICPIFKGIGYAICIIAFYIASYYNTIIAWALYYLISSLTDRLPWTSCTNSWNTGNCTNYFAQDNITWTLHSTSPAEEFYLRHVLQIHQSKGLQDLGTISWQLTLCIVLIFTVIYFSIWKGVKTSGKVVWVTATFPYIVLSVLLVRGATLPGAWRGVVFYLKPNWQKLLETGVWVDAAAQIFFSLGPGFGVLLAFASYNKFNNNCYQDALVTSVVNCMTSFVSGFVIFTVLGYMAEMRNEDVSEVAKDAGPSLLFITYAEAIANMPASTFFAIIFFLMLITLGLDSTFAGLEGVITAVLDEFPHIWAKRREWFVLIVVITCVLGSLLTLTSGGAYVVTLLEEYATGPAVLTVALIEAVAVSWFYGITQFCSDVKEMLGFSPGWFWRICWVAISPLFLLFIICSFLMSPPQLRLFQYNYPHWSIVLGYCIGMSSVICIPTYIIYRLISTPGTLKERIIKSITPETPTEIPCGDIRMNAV

In the case of `CCCN(CCCc1coc2c(OC)cccc12)C1COc2c(F)ccc(C(N)=O)c2C1` (stereo not drawn) [Compound 163, 8-fluoro-3-[[3-(7-methoxy-1-benzofuran-3-yl)propyl](propyl)amino]chromane-5-carboxamide], the inhibitory constant (Ki) (as a rule, the equilibrium dissociation constant of an inhibitor or competing ligand from its target) is 0.74 nM at 5-HT1A receptor [1] and 539 nM at serotonin transporter. Moreover, the Emax was found to be 0% at 5-HT1A receptor [2] and 52% in test [3] (setting [4]). Further, a half-maximal effect in test [3] (EC50) was put at 4.56 nM.

With `CCCN(C(C)CCCc1c[nH]c2ccc(F)cc12)C1COc2c(F)ccc(C(N)=O)c2C1` (single isomer, unassigned; (-)) [Compound 14b, (−)-8-fluoro-3-[[4-(5-fluoro-1H-indol-3-yl)-1-methylbutyl](propyl)amino]chromane-5-carboxamide], the inhibition constant (Ki) on 5-HT1A receptor [1] worked out at 1.88 nM; on serotonin transporter, 9.5 nM. The half-maximal inhibitory concentration (IC50) – broadly, the concentration at which inhibition is half-maximal – at 5-HT1A receptor [2] came to 110 nM; in test [3], 477 nM. The 5-HT1A Function cAMP (Emax) at 5-HT1A receptor [2] came out at 0%. For the same compound, in test [3] (setting [5]), the 5-HT1A Function GTPγS (Imax) came out at 100%.

For `CCN(CCCCc1c[nH]c2ccc(F)cc12)C1COc2c(F)ccc(C(N)=O)c2C1` (stereo not drawn) [Compound 80, 3-{ethyl[4-(5-fluoro-1H-indol-3-yl)butyl]amino}-8-fluorochromane-5-carboxamide], the Ki on 5-HT1A receptor [1] was 312 nM; at serotonin transporter it was 0.15 nM. The IC50 on 5-HT1A receptor [2] came to 1370 nM; in test [3], 1000 nM. Further, the results for the Emax (at 5-HT1A receptor [2]; in test [3] (setting [6])) were 0% and 100%, respectively.

Take `CCN(CCCc1c[nH]c2ccc(F)cc12)C1COc2cccc(C(N)=O)c2C1` (stereo not drawn) [Compound 149, 3-{ethyl[3-(5-fluoro-1H-indol-3-yl)propyl]amino}chromane-5-carboxamide]: the Ki on 5-HT1A receptor [1] was 2.72 nM; at serotonin transporter, 9.25 nM. In addition, the values for the EC50 (on 5-HT1A receptor [2]; in test [3]) were 3.65 nM and 44.9 nM, respectively. The Emax on 5-HT1A receptor [2] was determined as 70%; in test [3] (setting [4]), 79%.

Regarding `CCCN(CCc1c[nH]c2ccc(F)cc12)C1COc2cccc(OC)c2C1` (stereo not drawn) [Compound 29, N-[2-(5-fluoro-1H-indol-3-yl)ethyl]-5-methoxy-N-propylchroman-3-amine], the inhibition constant (Ki) on 5-HT1A receptor [1] came out at 7.32 nM; at serotonin transporter, 27 nM. Further, the concentration for a half-maximal effect (EC50) (as a rule, the concentration needed to bring the measured effect to its halfway point) at 5-HT1A receptor [2] was found to be 77.1 nM; in test [3], 205 nM. The Emax on 5-HT1A receptor [2] amounted to 99%; in test [3] (setting [4]), 70%.

For `CCN(C(C)CCc1c[nH]c2ccc(F)cc12)C1COc2c(F)ccc(C(N)=O)c2C1` (single isomer, unassigned; (-)) [Compound 16a, (−)-3-{ethyl[3-(5-fluoro-1H-indol-3-yl)-1-methylpropyl]amino}-8-fluorochromane-5-carboxamide], the values for the Ki at 5-HT1A receptor [1] and on serotonin transporter were 37.3 nM and 0.9 nM, respectively. The concentration for half-maximal inhibition (IC50) was found to be 187 nM at 5-HT1A receptor [2] and 3000 nM in test [3]. Further, the 5-HT1A Function cAMP (Emax) on 5-HT1A receptor [2] stood at 0%. Moreover, in test [3] (setting [6]), the Emax amounted to 100%.

`CCCN(CCCc1c[nH]c2ccc(F)cc12)C1COc2c(F)ccc(C(N)=O)c2C1` (single isomer, unassigned; (-)) [Compound 2a, (−)-8-fluoro-3-[[3-(5-fluoro-1H-indol-3-yl)propyl](propyl)amino]-3,4-dihydro-2H-chromene-5-carboxamide]: the values for the Ki on 5-HT1A receptor [1] and at serotonin transporter were 1.48 nM and 8.5 nM, respectively. On 5-HT1A receptor [2], the concentration giving a half-maximal response (EC50) worked out at 18.5 nM. Besides, the Emax turned out to be 77.5% on 5-HT1A receptor [2] and 77.4% in test [3] (setting [6]). Further, in test [3], the IC50 was 405 nM.

On to `COc1cccc2c1CC(N(CCCc1c[nH]c3ccc(F)cc13)C(C)C)CO2` (stereo not drawn) [Compound 40, N-[3-(5-fluoro-1H-indol-3-yl)propyl]-N-isopropyl-N-(5-methoxy-3,4-dihydro-2H-chromen-3-yl)amine], for which the inhibition constant Ki is 80.8 nM on 5-HT1A receptor [1] and 3.8 nM at serotonin transporter. Also, the results for the Emax (at 5-HT1A receptor [2]; in test [3] (setting [6])) were 0% and 46%, respectively. Besides, the half-inhibitory concentration (IC50) in test [3] is 3770 nM.

In the case of `NC(=O)c1ccc(F)c2c1CC(N(CCCCc1c[nH]c3ccc(F)cc13)CC1CC1)CO2` (stereo not drawn) [Compound 82, 3-{(cyclopropylmethyl)[4-(5-fluoro-1H-indol-3-yl)butyl]amino}-8-fluorochromane-5-carboxamide], the inhibition constant Ki on 5-HT1A receptor [1] amounted to 1.64 nM; on serotonin transporter it was 3.51 nM. For the same compound, the values for the half-inhibitory concentration (IC50) (on 5-HT1A receptor [2]; in test [3]) were 51.1 nM and 162 nM, respectively. Moreover, the figures for the Emax (at 5-HT1A receptor [2]; in test [3] (setting [6])) were 0% and 100%, respectively.

With `COc1cccc2c(CCN(CC3CC3)C3COc4c(F)ccc(C(N)=O)c4C3)coc12` (stereo not drawn) [Compound 160, 3-{(cyclopropylmethyl)[2-(7-methoxy-1-benzofuran-3-yl)ethyl]amino}-8-fluorochromane-5-carboxamide], the values for the Ki on 5-HT1A receptor [1] and at serotonin transporter were 33.8 nM and 127 nM, respectively. The concentration for half-maximal inhibition (IC50) at 5-HT1A receptor [2] came to 948 nM. The Emax was found to be 0% at 5-HT1A receptor [2] and 51% in test [3] (setting [4]). The response in test [3] was half-maximal at 1020 nM (EC50).

On to `NC(=O)c1ccc(F)c2c1C[C@@H](NCC1CCc3[nH]c4ccc(F)cc4c3C1)CO2` (single isomer, unassigned; (+)) [Compound 175b], for which the inhibition constant Ki on 5-HT1A receptor [1] came to 31.4 nM; at serotonin transporter, 47.6 nM. Besides, the values for the IC50 (at 5-HT1A receptor [2]; in test [3]) were 4130 nM and 174 nM, respectively. Besides, on 5-HT1A receptor [2], the 5-HT1A Function cAMP (Emax) was 0%. Also, the 5-HT1A Function GTPγS (Imax) in test [3] (setting [5]) worked out at 55%.

For the compound `CCCN(CCCc1csc2ccc(F)cc12)C1COc2cccc(OC)c2C1` (stereo not drawn) [Compound 19, N-[3-(5-fluoro-1-benzothien-3-yl)propyl]-5-methoxy-N-propylchroman-3-amine], the inhibitory constant (Ki) on 5-HT1A receptor [1] was 16 nM; at serotonin transporter, 405 nM. Further, the figures for the concentration giving a half-maximal response (EC50) (on 5-HT1A receptor [2]; in test [3]) were 81 nM and 317 nM, respectively. The Emax was determined as 86.5% at 5-HT1A receptor [2] and 100% in test [3] (setting [4]).

Regarding `CCN(CCc1coc2c(OC)cccc12)C1COc2c(F)ccc(C(N)=O)c2C1` (stereo not drawn) [Compound 157, 3-{ethyl[2-(7-methoxy-1-benzofuran-3-yl)ethyl]amino}-8-fluorochromane-5-carboxamide], the Ki on 5-HT1A receptor [1] was 83.8 nM; at serotonin transporter, 768 nM. The Emax turned out to be 0% on 5-HT1A receptor [2] and 70% in test [3] (setting [4]). The compound also returned an EC50 in test [3] of 1200 nM.

On to `C[C@H](CCN(C1CCC1)[C@@H]1COc2c(F)ccc(C(N)=O)c2C1)c1c[nH]c2ccc(F)cc12` [Compound 152b, (3S)-3-{cyclobutyl[(3R)-3-(5-fluoro-1H-indol-3-yl)butyl]amino}-8-fluorochromane-5-carboxamide], for which the results for the Ki at 5-HT1A receptor [1] and on serotonin transporter were 322 nM and 182 nM, respectively. The concentration for half-maximal inhibition (IC50) on 5-HT1A receptor [2] amounted to 727 nM; in test [3], 5000 nM. Besides, the results for the Emax (on 5-HT1A receptor [2]; in test [3] (setting [6])) were 0% and 50%, respectively.

Consider `CCCN(C(C)CCc1c[nH]c2ccc(C#N)cc12)C1COc2c(F)ccc(C(N)=O)c2C1` (single isomer, unassigned) [Compound 13b, 3-[[3-(5-cyano-1H-indol-3-yl)-1-methylpropyl](propyl)amino]-8-fluoro-3,4-dihydro-2H-chromene-5-carboxamide], for which the inhibition constant (Ki) at 5-HT1A receptor [1] worked out at 152 nM; at serotonin transporter, 37 nM. The concentration for a half-maximal effect (EC50) at 5-HT1A receptor [2] is 139 nM; in test [3], 1470 nM. On 5-HT1A receptor [2], this compound returned a 5-HT1A Function cAMP (Emax) of 68%. For the same compound, the Emax in test [3] (setting [4]) came out at 56.5%.

`CCCN(CCCc1c[nH]c2ccc(F)cc12)C1COc2cccc(OC)c2C1` (stereo not drawn) [Compound 23, [3-(5-fluoro-1H-indol-3-yl)propyl]-N-(5-methoxy-chroman-3-yl)propylamine]: the Ki amounted to 15.9 nM at 5-HT1A receptor [1] and 9 nM on serotonin transporter. Moreover, the EC50 came out at 39.3 nM at 5-HT1A receptor [2] and 99.5 nM in test [3]. Moreover, the figures for the Emax (on 5-HT1A receptor [2]; in test [3] (setting [4])) were 80.5% and 100%, respectively.

As to `CCCN(CCCc1c[nH]c2ccc(F)cc12)C1CCc2c(F)ccc(OC)c2C1` (stereo not drawn) [Compound 51, N-[3-(5-fluoro-1H-indol-3-yl)propyl]-N-(5-fluoro-8-methoxy-1,2,3,4-tetrahydronaphthalen-2-yl)-N-propylamine], the values for the inhibitory constant (Ki) at 5-HT1A receptor [1] and on serotonin transporter were 11.4 nM and 2.42 nM, respectively. Besides, the results for the EC50 (on 5-HT1A receptor [2]; in test [3]) were 13 nM and 15.3 nM, respectively. In addition, the values for the Emax (on 5-HT1A receptor [2]; in test [3] (setting [4])) were 83% and 95%, respectively.

On to `NC(=O)c1ccc(F)c2c1C[C@@H](NCC1CCc3c([nH]c4ccc(F)cc34)C1)CO2` (single isomer, unassigned; (-)) [Compound 179b], for which the Ki on 5-HT1A receptor [1] amounted to 24.2 nM; at serotonin transporter, 85.5 nM. In addition, the results for the IC50 (on 5-HT1A receptor [2]; in test [3]) were 956 nM and 6040 nM, respectively. At 5-HT1A receptor [2], the Emax amounted to 0%. In test [3] (setting [5]), this compound displayed a 5-HT1A Function GTPγS (Imax) of 100%.
